Measured values: patent publication US20260176300A1, “N-ARYLPYRAZOLE NOD2 AGONISTS AS PROMOTERS OF IMMUNE CHECKPOINT INHIBITOR THERAPY” (THE SCRIPPS RESEARCH INSTITUTE, priority 2022, published 2026)

Target: T1, NOD2 (Homo sapiens, UniProt Q9HC29)
T1 construct: host or cells: HEK-293T-derived HEK-Blue NF-kB/SEAP reporter cells
Assay: NOD2-HEK-Blue NF-κB reporter cell activation assay (NOD2-expressing HEK-293T cells)
Format: cell-based
Settings: for EC50: calculated, three-parameter dose-response nonlinear regression, read-out: pEC50 (μM), dose-dependent activation of NOD2-expressing HEK-293T cells (converted); for Potency in structure-activity comparison: relative to TT007, FIG. 2B, 2D, 2F, 6E; for Activity after N-methylation on Val: TT018 vs. TT019, TT010 vs. TT020, TT011 vs. TT021, FIG. 2C; for NOD2 activation, result in words in the pEC50 column: Table 1
Excerpt: FIG. 1(A-F). Virtual screening for small molecule NOD2 agonists. A, Docked structure of muramyl dipeptide (MDP) in the leucine-rich repeat (LRR) domain of rabbit NOD2 (pdb 5IRM). […] B, Results of virtual docking approach with reported chemical structures related to MDP. C, Workflow of virtual screening in which a library was generated using carboxylic acids appended to the L-Val-D-Glu dipeptide and then docked to the NOD2 LRR domain. D, Desmuramyl MDP (dMDP) structures resulting from the virtual screen that were synthesized for further screening. Chemicals shown as a pure enantiomer were synthesized as a racemic mixture. E, Activation of NOD2-expressing HEK-293T cells treated for 16 h with 10 µM of the indicated compound using a colorimetric assay. F, Dose-dependent activation of NOD2-expressing HEK-293T cells using the indicated compounds. Numbers in parentheses represent calculated negative log of the half maximal effective concentration (pEC50) values. NOD activation assays were analyzed using a one-way ANOVA with Dunnett's multiple comparisons test compared to the DMSO control. pEC50 values were derived by a three-parameter dose-response nonlinear regression. ****P<0.0001.
FIG. 2(A-G). Structure-activity relationship studies of 3,5-dimethyl-N-arylpyrazole NOD2 agonists. A, Structures of 3,5-dimethyl-N-arylpyrazole structures synthesized for SAR studies. B-F, Dose-dependent activation of NOD2-expressing HEK-293T cells using the indicated compounds grouped by similar structural perturbations. Numbers in parentheses represent calculated pEC50 values. G, Graph of calculated pEC50 values vs. calculated partition coefficient (clogP). Dotted lines show equivalent lipophilic ligand efficiency (LLE) values. Red arrow indicates optimization of the TT007 scaffold to TT030. pEC50 values were derived by a three-parameter dose-response nonlinear regression.
Cell culture. The following cell lines were used and sourced as follows: HEK-Blue NOD2 (InvivoGen, hkb-hnod2), HEK-Blue NOD1 (InvivoGen, hkb-nod1), HEK-Blue Null2 (hkb-null2), and B16-F10 (ATCC CRL-6475). All cell lines were cultured at 37° C. in 5% CO2 in DMEM (ThermoFisher, 11995065) supplemented with 10% fetal bovine serum (FBS), 100 U mL-1 penicillin, and 100 μg mL-1 streptomycin. Cells were maintained at no greater than 70% confluency and subcultured using TrypLE Express. Cell lines were routinely cultured without antibiotics to ensure no bacterial infection and tested for mycoplasma using a Universal Mycoplasma Detection Kit (ATCC 30-1012K). Primary human peripheral mononuclear blood cells (PBMCs) were cultured at 37° C. in 5% CO2 in RPMI 1640 (ThermoFisher, 61870143) supplemented with 10% FBS. All experimental work using human samples was reviewed and approved by the Scripps Research Institutional Review Board (Protocol IRB-21-7816NOD2).
Reporter cell line activation assay. Approximately 24 h before the assay, culture medium for each of the HEK-Blue reporter cell lines was replaced with a 1:1 mixture of DMEM supplemented with 10% FBS and OptiMEM. On the day of the assay, single cell suspensions (150,000 cells/mL) were produced in HEK-Blue detection medium (InvivoGen, hb-det2). Cells were aliquoted at 200 μL per well of a 96-well plate containing 0.2 μL of a 1000× stock of each test compound in DMSO. Cells were then incubated at 37° C. in 5% CO2 for 8-10 h. To measure activity, wells were then gently pipetted up and down to mix the conditioned medium, and absorbance from the colorimetric product of the secreted alkaline phosphatase was measured at 630 nm. In some assays, cells were stimulated for 16 h with compounds as described above in complete DMEM. Then, 20 μL of the conditioned medium was mixed with 180 μL QUANTI-Blue solution (InvivoGen, rep-qbs) and incubated for 2-4 h at 37° C. Activity was then measured by absorbance as described above.

T1 sequence (Q9HC29 whole entry): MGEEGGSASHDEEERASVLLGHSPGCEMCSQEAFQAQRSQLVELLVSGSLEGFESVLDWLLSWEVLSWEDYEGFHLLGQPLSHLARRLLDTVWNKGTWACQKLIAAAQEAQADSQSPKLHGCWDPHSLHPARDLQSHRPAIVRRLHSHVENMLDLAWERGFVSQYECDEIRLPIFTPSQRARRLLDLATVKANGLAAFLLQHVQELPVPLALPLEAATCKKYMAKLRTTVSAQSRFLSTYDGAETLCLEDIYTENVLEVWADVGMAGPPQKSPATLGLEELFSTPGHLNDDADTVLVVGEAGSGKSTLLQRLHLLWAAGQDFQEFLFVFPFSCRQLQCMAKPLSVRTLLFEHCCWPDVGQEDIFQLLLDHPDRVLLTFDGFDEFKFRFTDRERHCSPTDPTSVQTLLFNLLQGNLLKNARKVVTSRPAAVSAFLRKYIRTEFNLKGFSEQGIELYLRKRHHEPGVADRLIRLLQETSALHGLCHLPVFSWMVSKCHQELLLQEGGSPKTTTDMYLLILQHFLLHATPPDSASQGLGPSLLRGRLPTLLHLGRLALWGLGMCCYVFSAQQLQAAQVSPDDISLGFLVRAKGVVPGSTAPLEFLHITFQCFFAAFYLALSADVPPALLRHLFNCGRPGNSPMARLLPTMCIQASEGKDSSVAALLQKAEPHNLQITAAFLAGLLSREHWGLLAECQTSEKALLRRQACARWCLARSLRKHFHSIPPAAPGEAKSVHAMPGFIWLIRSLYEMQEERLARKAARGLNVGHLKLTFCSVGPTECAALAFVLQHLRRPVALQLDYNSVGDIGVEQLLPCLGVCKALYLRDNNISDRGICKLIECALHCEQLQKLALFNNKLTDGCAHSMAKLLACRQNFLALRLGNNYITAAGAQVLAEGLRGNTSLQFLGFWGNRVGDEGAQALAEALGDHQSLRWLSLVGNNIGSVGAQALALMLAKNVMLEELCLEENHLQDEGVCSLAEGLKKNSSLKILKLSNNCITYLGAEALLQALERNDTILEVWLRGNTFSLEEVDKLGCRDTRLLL

SMILES | EC50 | Potency in structure-activity comparison | also measured
CCOC(=O)CC[C@@H](NC(=O)[C@@H](NC(=O)c1cn(-c2ccc(F)cc2)nc1-c1cccc(C)c1)C(C)C)C(=O)OCC [TT009, Diethyl (1-(4-fluorophenyl)-3-(m-tolyl)-1H-pyrazole-4-carbonyl)-L-valyl-D-glutamate] |  | did not compensate the lack of the other substituent | Activation of NOD2-expressing HEK-293T cells, colorimetric assay (10 µM, 16 h (FIG. 1E)): inactive
CCOC(=O)CC[C@@H](NC(=O)[C@H](C(C)C)N(C)C(=O)c1cn(-c2ccc(F)cc2)nc1C)C(=O)OCC [TT021, Diethyl N-(1-(4-fluorophenyl)-3-methyl-1H-pyrazole-4-carbonyl)-N-methyl-L-valyl-D-glutamate] |  |  | Activity after N-methylation on Val: abolished the activity
CCOC(=O)CC[C@@H](NC(=O)[C@H](C(C)C)N(C)C(=O)c1c(C)nn(-c2ccccc2)c1C)C(=O)OCC [TT019, Diethyl N-(3,5-dimethyl-1-phenyl-1H-pyrazole-4-carbonyl)-N-methyl-L-valyl-D-glutamate] |  |  | Activity after N-methylation on Val: abolished the activity
CCOC(=O)CC[C@@H](NC(=O)[C@@H](NC(=O)c1cnn(-c2cccnc2)c1)C(C)C)C(=O)OCC [TT037, diethyl (1-(pyridin-3-yl)-1H-pyrazole-4-carbonyl)-L-valyl-D-glutamate] | 5.01 µM |  | 
CCOC(=O)CC[C@@H](NC(=O)[C@@H](NC(=O)[C@@H]1C[C@H]1c1ccc(Cl)c(Cl)c1)C(C)C)C(=O)OCC (racemic) [TT004, Diethyl (rac-(1R,2R)-2-(3,4-dichlorophenyl)cyclopropane-1-carbonyl)-L-valyl-D-glutamate] |  |  | NOD2 activation, result in words in the pEC50 column: Active
CCOC(=O)CC[C@@H](NC(=O)[C@@H](NC(=O)CCCc1ccccc1)C(C)C)C(=O)OCC [TT001, Diethyl (4-phenylbutanoyl)-L-valyl-D-glutamate] |  |  | NOD2 activation, result in words in the pEC50 column: Active

Now from value to molecule, other results behind:

EC50 | SMILES | Potency in structure-activity comparison | also measured
10 µM | CCOC(=O)CC[C@@H](NC(=O)[C@@H](NC(=O)c1cn(-c2ccc(F)cc2)nc1C)C(C)C)C(=O)OCC [TT011, Diethyl (1-(4-fluorophenyl)-3-methyl-1H-pyrazole-4-carbonyl)-L-valyl-D-glutamate] | reduced potency by up to two orders of magnitude | 
0.398 µM | CCOC(=O)CC[C@@H](NC(=O)[C@@H](NC(=O)c1c(C)nn(-c2cnc3[nH]ccc3c2)c1C)C(C)C)C(=O)OCC [TT029, Diethyl (3,5-dimethyl-1-(1H-pyrrolo[2,3-b]pyridin-5-yl)-1H-pyrazole-4-carbonyl)-L-valyl-D-glutamate] |  | 
2.51 µM | CCOC(=O)CC[C@@H](NC(=O)[C@@H](NC(=O)c1c(C)nn(-c2cncnc2)c1C)C(C)C)C(=O)OCC [TT034, Diethyl (3,5-dimethyl-1-(pyrimidin-5-yl)-1H-pyrazole-4-carbonyl)-L-valyl-D-glutamate] |  | 
1.58 µM | CCOC(=O)CC[C@@H](NC(=O)[C@@H](NC(=O)c1c(C)nn(-c2ccccn2)c1C)C(C)C)C(=O)OCC [TT032, Diethyl (3,5-dimethyl-1-(pyridin-2-yl)-1H-pyrazole-4-carbonyl)-L-valyl-D-glutamate] |  | 
39.8 µM | CCOC(=O)CC[C@@H](NC(=O)[C@@H](NC(=O)c1cnn(-c2ccc(F)cc2)c1C)C(C)C)C(=O)OCC [TT010, Diethyl (1-(4-fluorophenyl)-5-methyl-1H-pyrazole-4-carbonyl)-L-valyl-D-glutamate] | reduced potency by up to two orders of magnitude | 
2.51 µM | CCOC(=O)CC[C@@H](NC(=O)[C@@H](NC(=O)c1c(C)nn(-c2cccc(OC)c2)c1C)C(C)C)C(=O)OCC [TT036, Diethyl (1-(3-methoxyphenyl)-3,5-dimethyl-1H-pyrazole-4-carbonyl)-L-valyl-D-glutamate] |  | 
2 µM | CCOC(=O)CC[C@@H](NC(=O)[C@@H](NC(=O)c1c(C)nn(-c2ccc(OC)cc2)c1C)C(C)C)C(=O)OCC [TT023, Diethyl (1-(4-methoxyphenyl)-3,5-dimethyl-1H-pyrazole-4-carbonyl)-L-valyl-D-glutamate] | did not yield compounds with appreciable differences in potency | 
